Data from patent US12465601B2, “Uses of phosphodiesterase inhibitors” (TRANSTHERA SCIENCES (NANJING), INC., priority 2019, dated 2025).

Assays:
rats with heart failure = assay: Heart failure models of rats induced by coronary artery ligation; assay type: in vivo, Sprague Dawley rats; conditions: 30 mpk p.o bid, 28 days
Method: Sprague Dawley rats (SD rats), male, weight of about 220 g during modeling. Before operation, the animals were anesthetized by intraperitoneal injection of sodium pentobarbital injection, and atropine was injected intraperitoneally to eliminate phlegm. After the rat was anesthetized and fixed in supine position, a ventilator was used for assisted breathing, the chest was opened between the third and fourth ribs, and the left anterior descending coronary artery was ligated with a 5-0 suture needle. After the ligation was completed, the chest cavity was closed, the skin was sutured, and the rats were put in an insulation blanket for recovery. The same operation was performed on the sham group, except for the silk ligature operation. After the operation, the rats were subjected to intramuscular injection of meloxicam for pain relief, intraperitoneal injection of gentamicin sulfate injection for eliminating infection, and intraperitoneal injection of lidocaine for preventing ventricular fibrillation. One week after the animals recovered from surgery, the model rats were divided into a model group and a therapeutic drug group (compound 102 group), and the vehicle and compound 102 were administered by gavage, respectively, twice a day for four consecutive weeks. During the experiment, the living status of the animals were observed and abnormal conditions were recorded to evaluate the safety of the compound; and administration was performed for 28 days. The animals were anesthetized by intraperitoneal injection of sodium pentobarbital on the second day after the last administration, and echocardiographic detection and hemodynamic detection were performed to evaluate the effect of the compound on cardiac systolic function and ventricular volume. After the end of the experiment, end point treatment was performed, and the heart was taken for material collection for subsequent related researches on cGMP and protein expression. One week after the animals recovered from surgery, the rats were anesthetized with isoflurane, and a small animal ultrasound imaging system Vevo was used to examine the left ventricular function of the model rats. The model was considered successful if the LVEF % was reduced by 30%. Except for the sham group, the animals were randomly divided into 2 groups according to LVEF % and body weight. The number of animals in each group and the method of administration were as follows: [table] At the end of the experiment, rats were sacrificed and the infarct heart tissue was fixed with 4% formaldehyde, dehydrated, embedded in paraffin, and sectioned. Collagen deposition status was observed under a microscope by means of using Sirius red staining, and the Leica aperio digital slice scanning system was used for scanning analysis. The main evaluation indexes are LVEF % (left ventricular ejection fraction), FS (left ventricular fractional shortening), ESV (left ventricular end-systolic volume), EDV (left ventricular end-diastolic volume), and heart rate (HR). At the end of the experiment, the proportion of Sirius red in peri-infarction zone was quantified to evaluate the collagen deposition status. The data was represented by Mean±S.E.M, and Graphpad Prism 5.0 was used for statistical mapping. Statistical analysis was performed with T-test.

[1] = system: HEK293T cells double transfected with human PDE9A2 and natriuretic peptide protein receptor 1 (NPR1); assay: Effect on cGMP content in transiently transfected HEK293T cells (ANF-stimulated, cGMP ELISA); assay type: cell-based; conditions: ANF 1 μM; compound 0.12-30 μM; FIG. 1
Method: Cell name: Human embryonic kidney cell HEK293T
HEK293T cells were plated in a 6-well plate at 2×10^6 cells/well and cultured for 6 h to allow for adherence of cells.
The medium of each well was changed to 1.5 mL DMEM complete medium;
Non-transfected wells: An equal volume of DMEM complete medium (700 μL DMEM complete medium) was added to non-transfected wells.
The medium was aspirated from each well. The cells were washed once with PBS, and 250 μL of 0.5 M perchloric acid was added.
The cells were collected with a cell scraper, and transferred into a 1.5 mL centrifuge tube. After homogeneously mixing by vortex, the cells were centrifuged at 6000 g for 20 min at 4° C. […]
The plate was washed thoroughly 5 times, then 200 μL of Ellman's Reagent was added to each well. The plate was sealed, shaken in the dark, and color-developed for 60 min, and then detected for absorbance value at 412 nm.
Firstly, the non-specific binding (the reading of each well minus the reading of the NSB well) was subtracted, and then B/B0 was calculated, that is, the ratio of the binding of the sample or standard to the maximum binding, and converted according to the following formula, and then the obtained logit(B/B0) and lg (compound concentration) were subjected to linear regression analysis to obtain a standard curve. logit(B/B0)=ln[B/B0/(1−B/B0)] […]

CCc1cc2c(N3CCC(C)(OC)CC3)c(C#N)c(=O)[nH]c2cn1 [Compound 102, 6-ethyl-4-(4-methoxy-4-methylpiperidin-1-yl)-2-oxo-1,2-dihydro-1,7-diazanaphthalene-3-carbonitrile]
Percentage (%) of collagen deposition in the peri-infarction zone (rats with heart failure; Mean ± S.E.M, Sirius red staining, P<0.001 vs model group): 21.5 ± 1.234 % | collagen deposition in the peri-infarction zone (in words) (rats with heart failure; compared with model group P<0.001): significantly reduce | LVEF (left ventricular ejection fraction) (rats with heart failure; vs model group P<0.001, FIG. 3): improve the reduction | FS (left ventricular fractional shortening) (rats with heart failure; vs model group P<0.001, FIG. 4): improve the reduction | ESV (left ventricular end-systolic volume) (rats with heart failure; vs model group P<0.01, FIG. 5): significant improvement effect | EDV (left ventricular end-diastolic volume) (rats with heart failure; vs model group P<0.05, FIG. 6): significant improvement effect | cGMP content in HEK293T cells [1]: Up-regulation effect
